# Assay results: patent publication US8906825B2, “Herbicidal compositions comprising 4-amino-3-chloro-5-fluoro-6-(4-chloro-2-fluoro-3-methoxyphenyl) pyridine-2-carboxylic acid or a derivative thereof and triazolopyrimidine sulfonamides” (Dow AgroSciences LLC, priority 2012, dated 2014)
# How the values were obtained:
# Type in all cases: in vivo
# [1] = system: ECHCG (Echinochloa crusgalli (L.) Beauv., barnyardgrass); test: Postemergence foliar-applied herbicidal mixtures, direct seeded rice, greenhouse (Example I)
# [2] = system: SASKR (Salsola iberica (L.), Russian thistle); test: Postemergence foliar-applied herbicidal mixtures, cereal crops, greenhouse (Example III); details: Compound A Benzyl Ester 5 gai/ha, visual score 0 to 100 percent after 20-22 days
# Method: (§1) Seeds of the desired test plant species were planted in Sun Gro MetroMix® 306 planting mixture, which typically has a pH of 6.0 to 6.8 and an organic matter content of about 30 percent, in plastic pots with a surface area of 103.2 square centimeters (cm^2). […] The plants were grown for 7-36 days in a greenhouse with an approximate 14 hour photoperiod which was maintained at about 18° C. during the day and about 17° C. during the night. Nutrients and water were added on a regular basis and supplemental lighting was provided with overhead metal halide 1000-Watt lamps as necessary. The plants were employed for testing when they reached the second or third true leaf stage.
# (§2) Treatments consisted of the benzyl ester of 4-amino-3-chloro-5-fluoro-6-(4-chloro-2-fluoro-3-methoxy-phenyl)pyridine-2-carboxylic acid (Compound A), formulated as an SC, a second cereal herbicide alone and then both in combination.
# (§3) Other herbicidal components were applied on an active ingredient basis and included acetolactate synthase (ALS)-inhibiting herbicides (sulfonamide chemical class) florasulam formulated as Derby® and pyroxsulam formulated as PowerFlex®. A measured aliquot of benzyl ester of 4-amino-3-chloro-5-fluoro-6-(4-chloro-2-fluoro-3-methoxy-phenyl)pyridine-2-carboxylic acid (Compound A) was placed in 25 milliliter (mL) glass vials and diluted in a volume of 1.25% (v/v) AgriDex® crop oil concentrated to obtain a stock solution. Compound requirements are based upon a 12 mL application volume at a rate of 187 liters per hectare (L/ha). […] Formulated compounds were applied to the plant material with an overhead Mandel track sprayer equipped with an 8002E nozzle calibrated to deliver 187 L/ha over an application area of 0.503 square meters (m^2) at a spray height of 18 inches (46 cm) above average plant canopy. Control plants were sprayed in the same manner with the solvent blank.
# (§4) The treated plants and control plants were placed in a greenhouse as described above and watered by sub-irrigation to prevent wash-off of the test compounds. After 20-22 days, the condition of the test plants as compared with that of the control plants was determined visually and scored on a scale of 0 to 100 percent where 0 corresponds to no injury and 100 corresponds to complete kill.
# (§5) Colby's equation was used to determine the herbicidal effects expected from the mixtures (Colby, S. R. 1967. Calculation of the synergistic and antagonistic response of herbicide combinations. Weeds 15:20-22.).
# (§6) The following equation was used to calculate the expected activity of mixtures containing two active ingredients, A and B: Expected=A+B−(A×B/100)
# [3] = system: VIOTR (Viola tricolor (L.), wild pansy); test: as above; details: Compound A Benzyl Ester 5 gai/ha, visual score 0 to 100 percent after 20-22 days
# Method: as §1, §2, §3, §4, §5, §6
# [4] = system: MATCH (Chamomilla chamomilla (L.) Rydb., scented mayweed); test: as above; details: Compound A Benzyl Ester 5 gai/ha, visual score 0 to 100 percent after 20-22 days
# Method: as §1, §2, §3, §4, §5, §6
# [5] = system: VERPE (Veronica persica Poir., bird's-eye speedwell); test: as above; details: visual score 0 to 100 percent after 20-22 days
# Method: as §1, §2, §3, §4, §5, §6
# [6] = system: LAMPU (Lamium purpureum (L.), purple deadnettle); test: as above; details: Compound A Benzyl Ester 8.75 gai/ha, visual score 0 to 100 percent after 20-22 days
# Method: as §1, §2, §3, §4, §5, §6
# [7] = system: CIRAR (Cirsium arvense (L.) Scop., Canada thistle); test: as above
# Method: as §1, §2, §3, §4, §5, §6
# [8] = system: CYPIR (Cyperus iria L., rice flatsedge); test: Postemergence foliar-applied herbicidal mixtures, direct seeded rice, greenhouse (Example I)
Structure (SMILES),Visual Weed Control (%) - 27 DAA ECHCG Obs ([1]; Penoxsulam 4.38 gai/ha),Visual Weed Control (%) - 27 DAA ECHCG Obs ([1]; Penoxsulam 8.75 gai/ha),SASKR Obs [2],VIOTR Obs [3],MATCH Obs [4],VERPE Obs ([5]; Compound A Benzyl Ester 5 gai/ha),VERPE Obs ([5]; Compound A Benzyl Ester 8.75 gai/ha),LAMPU Obs [6],"CIRAR Obs ([7]; Compound A Benzyl Ester 5 gai/ha, visual score 0 to 100 percent after 20-22 days)","CIRAR Obs ([7]; Compound A Benzyl Ester 8.75 gai/ha, visual score after 20-22 days, Table 17)","CIRAR Obs ([7]; Compound A Benzyl Ester 8.75 gai/ha, visual score after 20-22 days, Table 18)",Visual Weed Control (%) - 20 DAA CYPIR Obs ([8]; Compound A Benzyl Ester 4.38 gae/ha),Visual Weed Control (%) - 22 DAA CYPIR Obs ([8]; Compound A Benzyl Ester 8 gae/ha),Visual Weed Control (%) - 20 DAA CYPIR Obs ([8]; Compound A Benzyl Ester 8.75 gae/ha),Visual Weed Control (%) - 22 DAA CYPIR Obs ([8]; Compound A Benzyl Ester 16 gae/ha),Visual Weed Control (%) - 20 DAA CYPIR Obs ([8]; Compound A Benzyl Ester 17.5 gae/ha)
"COc1cnc(OC)n2nc(NS(=O)(=O)c3c(OCC(F)F)cccc3C(F)(F)F)nc12 [Penoxsulam, 2-(2,2-difluoroethoxy)-N-(5,8-dimethoxy[1,2,4]triazolo[1,5-c]pyrimidin-2-yl)-6-(trifluoromethyl)benzenesulfonamide, reference compound]",0%,30%,,,,,,,,,,,,,,
"COc1c(Cl)ccc(-c2nc(C(=O)OCc3ccccc3)c(Cl)c(N)c2F)c1F [Compound A Benzyl Ester, benzyl ester of 4-amino-3-chloro-5-fluoro-6-(4-chloro-2-fluoro-3-methoxy-phenyl)pyridine-2-carboxylic acid]",,,57%,13%,13%,37%,50%,83%,40%,40%,40%,15%,20%,60%,85%,90%
